Counter-ions that a name gives are not always drawn. Like-named read-outs stand apart in the source and are kept apart here. Blank lines part the entries; values can stand above or below the compound they belong to.
Assays:
[1] = tested on: microsomal lipid peroxidation; experiment: Inhibition of microsomal lipid peroxidation (in vitro); type: biochemical; conditions: for IC50: microsomes, read-out: IC50 (50% inhibition of lipid peroxidation)
Experimental: 5) Inhibition of microsomal lipid peroxidation (in vitro)
The inhibition of lipid peroxidation was measured under the experimental conditions described by H. Wafers and H. Sies, Eur. J. Biochem. 174, 353-357 (1988). The microsomes were obtained according to the literature cited therein. IC50 denotes the concentration of the test compound in moles per liter which causes a 50% inhibition of lipid peroxidation.

[2] = tested on: HEP G2 cells; experiment: Inhibition of cholesterol biosynthesis in cell cultures (HEP G2 cells), incorporation of 14C-sodium acetate in cholesterol; type: cell-based; conditions: for IC50 / IC70: Homo sapiens; for Relative potency in %: from IC50
Experimental: 2) Inhibition of cholesterol biosynthesis in cell cultures (EEP G2 cells)
Determination of the inhibition of the incorporation of ^14 C-sodium acetate in cholesterol
Monolayers of HEP G2 cells in lipoprotein-free medium were preincubated with various concentrations of the sodium salts of the dihydroxycarboxylic acids of the formula II for 1 hour. After adding ^14 C-labeled sodium acetate, the incubation was continued for 3 hours. Tritium-labeled cholesterol was added as an internal standard and an aliquot of the cells was subjected to alkaline hydrolysis. The lipids were extracted using chloroform/methanol 2: 1. After adding carrier cholesterol, the lipid mixture was preparatively separated on TLC plates using chloroform/acetone 9: 1. The cholesterol zone was made visible by staining with iodine vapor, additionally detected using a TLC radio scanner and then scraped off. The amount of ^14 C-cholesterol formed was determined scintigraphically and related to mg of cell protein. The same procedure was carried out with cells from the Bame culture without preincubation with a test compound (so-called "solvent control"). The potency of the test compounds was determined by comparison of the biosynthesized ^14 C-cholesterol in test runs and in "solvent control".

[3] = tested on: serum lipoproteins; experiment: Action on serum lipoproteins and other metabolic parameters of male rats in the subchronic test; type: in vivo; conditions: rat
Experimental: 3) Action on serum lipoproteins and other metabolic parameters of male rats in the subchronic test
Groups of male rats of the strain HOE: WISKf (SPF 71) having a starting weight of above 180 g received the test preparations daily in the morning (sodium salts of the dihydroxycarboxylic acids of the formula II) in polyethylene glycol 400 by stomach tube; the respective control group received only the vehicle. The last (7th) administration was carried out 24 hours before taking blood and sacrificing. There was free access to food and water during the experiment. 24 hours before taking blood, which wall carried out retroorbitally under slight ether anesthesia before and after the treatment period (i.e. on the 1st and 8th day), the food was withdrawn. Total cholesterol was determined in the serum of each individual animal [CHODPAP high performance method of Boehringer Mannheim], and, as a measure of the triglycerides, total glycerol was also determined analytically from the serum pool of all the animals of one group [GPO-PAP high performance method, Boehringer Mannheim].
Immediately after taking blood, the animals were sacrificed by dislocation of the spine, and the relative liver weight, the change in body weight and the food consumption were determined.
For the analysis of the serum lipoproteins, the serum of all the rats of one group was pooled. The serum lipoproteins were separated using the preparative ultracentrifuge.
The following conditions were used for the separation of the fractions VLDL, LDL and HDL:
The determination of the protein was carried out by the method of Lowry et al. [LOWRY O. H., ROSEBOROUGH, N.J., PARR, A. L. and RANDELL, R. J.: J. Biol. Chem. 193, 265 (1951)].

[4] = tested on: serum total cholesterol; experiment: Hypocholesterolemic activity in rabbits after p.o. administration; type: in vivo, male white New Zealand rabbits; conditions: rabbit p.o.
Experimental: 4) Hypocholesterolemic activity in rabbits after p.o. administration
Normolipemic male white New Zealand rabbits, body weight 3-3.5 kg, were divided into groups of 5 animals. The groups in each case received one of the test compounds (sodium salts of the compounds of the formula II), suspended in 1% aqueous methylcellulose (®Tylose MH 300), 5.10 or 20 mg/kg/day daily in the morning by stomach tube. The animals of the control groups received only Tylose MH 300. Every 3-4 days samples of venous blood were taken from all animals 20 hours after the oral administration. The serum total cholesterol was determined enzymatically in these samples using the test combination of Boehringer Mannheim (CHOD-PAP high performance method). The serum cholesterol level of the treated animals was compared with that of the control groups. A "discharge phase" followed the 20-day "treatment phase", in which the change in the serum cholesterol level was further monitored.

[5] = target: T1, HMG-CoA reductase (Rattus norvegicus, UniProt P51639); experiment: Inhibition of HMG-CoA reductase activity in solubilized enzyme preparations from rat liver microsomes; type: biochemical; conditions: sodium salts of the dihydroxycarboxylic acids; mean of 3 parallel samples; read-out: IC50 (molar concentration necessary for a 50% inhibition)
T1 construct: solubilized enzyme preparations from liver microsomes of rats; from tissue; host or cells: rat liver microsomes (cholestyramine-induced rats), solubilized
T1 sequence (P51639 1-887): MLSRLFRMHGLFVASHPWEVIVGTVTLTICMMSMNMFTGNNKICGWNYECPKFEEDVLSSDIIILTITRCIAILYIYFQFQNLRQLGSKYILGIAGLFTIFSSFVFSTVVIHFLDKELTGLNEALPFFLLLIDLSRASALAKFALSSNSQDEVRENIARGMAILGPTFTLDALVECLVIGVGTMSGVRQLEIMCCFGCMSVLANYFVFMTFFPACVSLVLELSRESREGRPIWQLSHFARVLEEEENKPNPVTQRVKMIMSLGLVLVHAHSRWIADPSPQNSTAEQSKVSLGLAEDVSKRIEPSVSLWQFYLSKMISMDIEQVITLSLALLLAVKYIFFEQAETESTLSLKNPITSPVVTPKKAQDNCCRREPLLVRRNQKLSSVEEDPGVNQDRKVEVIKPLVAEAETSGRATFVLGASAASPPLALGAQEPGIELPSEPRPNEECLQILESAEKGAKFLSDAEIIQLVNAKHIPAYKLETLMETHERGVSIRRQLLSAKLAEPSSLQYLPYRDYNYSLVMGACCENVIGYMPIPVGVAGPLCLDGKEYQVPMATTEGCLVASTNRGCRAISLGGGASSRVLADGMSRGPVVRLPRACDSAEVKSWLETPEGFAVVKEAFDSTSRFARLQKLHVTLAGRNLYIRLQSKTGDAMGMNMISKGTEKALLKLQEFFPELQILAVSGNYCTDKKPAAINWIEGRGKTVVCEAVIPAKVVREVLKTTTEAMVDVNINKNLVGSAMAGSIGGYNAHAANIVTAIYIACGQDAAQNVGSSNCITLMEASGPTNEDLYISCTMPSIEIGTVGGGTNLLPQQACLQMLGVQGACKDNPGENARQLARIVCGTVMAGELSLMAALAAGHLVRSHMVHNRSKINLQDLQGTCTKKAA
Experimental: 1) Inhibition of HKG-CoA reductase activity in solubilized enzyme preparations from rat liver microsomes
HMG-CoA reductase activity was measured on solubilized enzyme preparations from liver microsomes of rats which had been induced by conversion into the day/night rhythm using cholestyramine (®Cuemid). (S,R)^14 C-HMG-CoA was used as a substrate, and the concentration of NADPH was maintained during the incubation by a regenerating system. The separation of ^14 C-mevalonate from substrate and other products (for example ^14 C-HMG) was carried out by column elution, the elution profile of each individual sample being determined. The regular addition of ^3 H-mevalonate was avoided as the determination gives the data relative to the inhibitory action. The enzyme-free control, the enzyme-containing normal mixture (=100%) and those containing preparation additives were in each case treated together in one series of experiments. The sodium salts of the dihydroxycarboxylic acids of the formula II were always employed as the preparation in this test. Each individual value was formed as the mean value of 3 parallel samples. The significance of the mean value differences between preparation-free and preparation-containing samples was evaluated by the t-test.

[6] = HepG2, sodium salts, test compounds corrected by deviation of mevinolin sodium from its mean value, read-out: IC50 (concentration necessary for a 50% inhibition)
[7] = 100 mg/kg daily by stomach tube, 7 administrations
[8] = 10 mg then 20 mg/kg per day, discharge phase 3
[9] = 10 mg then 20 mg/kg per day, discharge phase 6
[10] = 10 mg then 20 mg/kg per day, discharge phase 11
[11] = 10 mg then 20 mg/kg per day, discharge phase 22
[12] = 10 mg/kg per day (up to 10th day), administration 3
[13] = 10 mg/kg per day (up to 10th day), administration 10
[14] = 20 mg/kg per day (from 11th day), administration 14
[15] = 20 mg/kg per day (from 11th day), administration 17
[16] = 20 mg/kg per day (from 11th day), administration 20

IC50 [1]: 1500 nM
Structure (SMILES): Oc1c(-c2ccc(F)cc2)cc(Sc2ccc(F)cc2)cc1C1CC1 [Process Example 12, 2-(p-Fluorophenyl)-4-(p-fluorophenylthio)-6-cyclopropylphenol]
Inhibition at 10^-5 mol/l [1]: 99%

IC50 [2, 6]: 50 nM
Structure (SMILES): CC[C@H](C)C(=O)O[C@H]1C[C@@H](C)C=C2C=C[C@H](C)[C@H](CC[C@@H](O)C[C@@H](O)CC(=O)O)[C@H]21 [mevinolin sodium salt, reference compound]
IC70 ([2]; HepG2, sodium salts, test compounds corrected by deviation of mevinolin sodium from its mean value, read-out: IC70 (concentration necessary for a 70% inhibition)): 150 nM
IC70 (concentration necessary for a 70% inhibition) ([2]; sodium salts, test compounds corrected by deviation of mevinolin sodium from its mean value): 150 nM

IC50 [5]: 8 nM
IC50 [2, 6]: 8 nM
Structure (SMILES): CC(C)c1cc(Sc2ccccc2)cc(-c2ccc(F)cc2)c1OC[C@@H](O)C[C@@H](O)CC(=O)O [Example 4]
Relative potency in % ([2]; mevinolin sodium = 100): 625%

IC50 [1]: 4000 nM
Structure (SMILES): CC(C)c1cc(Sc2ccccc2)cc(-c2ccc(F)cc2)c1O [Process Example 7, 2-(p-Fluorophenyl)-4-(phenylthio)-6-isopropylphenol]
Inhibition at 10^-5 mol/l [1]: 92%

IC50 [1]: 1600 nM
Structure (SMILES): CC(C)c1c(O)c(C(C)C)c(C(C)C)c(O)c1-c1ccc(F)cc1 [Process Example 22, 2-(p-Fluorophenyl)-3,5,6-triisopropyl-1,4-hydroquinone]
Inhibition at 10^-5 mol/l [1]: 99%

IC50 [1]: 4400 nM
Structure (SMILES): CC(C)c1cc(S)cc(-c2ccc(F)cc2)c1O [Process Example 4, 2-(P-Fluorophenyl)-4-mercapto-6-isopropylphenol]
Inhibition at 10^-5 mol/l [1]: 90%

Continued, compound first:

Structure (SMILES): CC(=O)Oc1c(-c2ccc(F)cc2)c(C(C)C)c(O)c(C(C)C)c1C(C)C [Process Example 23, 2,5,6-Triisopropyl-3-(p-fluorophenyl)-4-acetoxyphenol]
Inhibition at 10^-5 mol/l [1]: 98%
IC50 [1]: 2800 nM

Structure (SMILES): CCOC(=O)C(C)(C)Oc1ccc(Cl)cc1 [clofibrate, reference compound]
Body weight, % changes in the mean value relative to starting [3, 7]: +8%
Food consumption, % changes in the mean value relative to control [3, 7]: +1%
Glycerol VLDL, % change compared to control [3, 7]: +4%
Liver weight, % changes in the mean value relative to control [3, 7]: +15%
Protein LDL, % change compared to control [3, 7]: -9%
Protein VLDL, % change compared to control [3, 7]: -16%
Total cholesterol HDL, % change compared to control [3, 7]: -29%
Total cholesterol LDL, % change compared to control [3, 7]: -19%
Total cholesterol VLDL, % change compared to control [3, 7]: -40%
Cholesterol HDL/LDL ([3]; 100 mg/kg daily, control standardization to 1.00): 0.88

Structure (SMILES): CC(C)c1cc(-c2ccc(F)cc2)c(OC[C@@H](O)C[C@@H](O)CC(=O)[O-])c(C(C)C)c1.[Na+] [Compound C, 3(R),5(S)-dihydroxy-6[-2-(4-fluorophenyl)-4,6-diisopropylphenoxy]hexanoicacid sodium salt]
IC50 ([2]; HepG2, read-out: IC50 (concentration necessary for a 50% inhibition)): 27 nM
IC70 ([2]; HepG2, read-out: IC70 (concentration necessary for a 70% inhibition)): 70 nM
Relative potency in % ([2]; mevinolin sodium = 100): 185%
Relative potency in % (value in parentheses) ([2]; mevinolin sodium = 100, in parentheses, corresponds to IC70): 214%
Serum total cholesterol, % change compared to control group [4, 8]: -13%
Serum total cholesterol, % change compared to control group [4, 9]: -23%
Serum total cholesterol, % change compared to control group [4, 10]: -16%
Serum total cholesterol, % change compared to control group [4, 11]: +18%
Serum total cholesterol, % change compared to control group [4, 12]: +7%
Serum total cholesterol, % change compared to control group [4, 13]: -32%
Serum total cholesterol, % change compared to control group [4, 14]: -31%
Serum total cholesterol, % change compared to control group [4, 15]: -37%
Serum total cholesterol, % change compared to control group [4, 16]: -36%

Structure (SMILES): CC[C@H](C)C(=O)O[C@H]1C[C@@H](C)C=C2C=C[C@H](C)[C@H](CC[C@@H]3C[C@@H](O)CC(=O)O3)[C@H]21 [Mevinolin]
Serum total cholesterol, % change compared to control group [4, 8]: +14%
Serum total cholesterol, % change compared to control group [4, 9]: -1%
Serum total cholesterol, % change compared to control group [4, 10]: +2%
Serum total cholesterol, % change compared to control group [4, 11]: 0%
Serum total cholesterol, % change compared to control group [4, 12]: -12%
Serum total cholesterol, % change compared to control group [4, 13]: -30%
Serum total cholesterol, % change compared to control group [4, 14]: -27%
Serum total cholesterol, % change compared to control group [4, 15]: -24%
Serum total cholesterol, % change compared to control group [4, 16]: -26%

Structure (SMILES): CC(C)c1cc(SC(C)(C)Sc2cc(-c3ccc(F)cc3)c(O)c(C(C)C)c2)cc(-c2ccc(F)cc2)c1O [Process Example 5, 4,4-(Isopropylidenedithio)-bis-[(2-isopropyl-6-p-fluorophenyl)phenol]]
Inhibition at 10^-5 mol/l [1]: 11%

Structure (SMILES): CC(C)Sc1cc(-c2ccc(F)cc2)c(O)c(C(C)C)c1 [Process Example 8, 2-(p-Fluorophenyl)-4-(isopropylthio)-6-isopropylphenol]
Inhibition at 10^-5 mol/l [1]: 1%

Reference: patent US5294724A, “4-hydroxytetrahydropyran-2-ones and the corresponding dihydroxycarboxylic acid derivatives, salts and esters and a process for their preparation” (priority 1989, dated 1994)
